Laboratory results as given in article PMC9881673, “Investigating the potential anticancer activities of antibiotics as topoisomerase II inhibitors and DNA intercalators: in vitro, molecular docking, molecular dynamics, and SAR studies” (Journal of Enzyme Inhibition and Medicinal Chemistry, 2023).

Legend:
[1] = MTT antiproliferative assay, HepG-2; type: cell-based; conditions: human, HepG-2 hepatocellular carcinoma cells, HepG-2, MTT, read-out: IC50 (cytotoxicity)
Procedure: (§1) DOX was used as standard (920 µM).

[2] = MTT antiproliferative assay, HCT-116; type: cell-based; conditions: human, HCT-116 colorectal carcinoma cells, HCT-116, MTT, read-out: IC50 (cytotoxicity)
Procedure: as §1

[3] = target: T1, TOP-2 enzyme (Homo sapiens, UniProt P11388); assay: Topoisomerase II inhibitory assay (TopoGEN plasmid-based kit, DNA decatenation); type: biochemical; conditions: decatenation of DNA by TOP-2; read-out: IC50 (TOP-2 inhibition)
T1 construct: purchased TOPOGEN, CO, USA TG1001
T1 sequence (P11388 whole entry): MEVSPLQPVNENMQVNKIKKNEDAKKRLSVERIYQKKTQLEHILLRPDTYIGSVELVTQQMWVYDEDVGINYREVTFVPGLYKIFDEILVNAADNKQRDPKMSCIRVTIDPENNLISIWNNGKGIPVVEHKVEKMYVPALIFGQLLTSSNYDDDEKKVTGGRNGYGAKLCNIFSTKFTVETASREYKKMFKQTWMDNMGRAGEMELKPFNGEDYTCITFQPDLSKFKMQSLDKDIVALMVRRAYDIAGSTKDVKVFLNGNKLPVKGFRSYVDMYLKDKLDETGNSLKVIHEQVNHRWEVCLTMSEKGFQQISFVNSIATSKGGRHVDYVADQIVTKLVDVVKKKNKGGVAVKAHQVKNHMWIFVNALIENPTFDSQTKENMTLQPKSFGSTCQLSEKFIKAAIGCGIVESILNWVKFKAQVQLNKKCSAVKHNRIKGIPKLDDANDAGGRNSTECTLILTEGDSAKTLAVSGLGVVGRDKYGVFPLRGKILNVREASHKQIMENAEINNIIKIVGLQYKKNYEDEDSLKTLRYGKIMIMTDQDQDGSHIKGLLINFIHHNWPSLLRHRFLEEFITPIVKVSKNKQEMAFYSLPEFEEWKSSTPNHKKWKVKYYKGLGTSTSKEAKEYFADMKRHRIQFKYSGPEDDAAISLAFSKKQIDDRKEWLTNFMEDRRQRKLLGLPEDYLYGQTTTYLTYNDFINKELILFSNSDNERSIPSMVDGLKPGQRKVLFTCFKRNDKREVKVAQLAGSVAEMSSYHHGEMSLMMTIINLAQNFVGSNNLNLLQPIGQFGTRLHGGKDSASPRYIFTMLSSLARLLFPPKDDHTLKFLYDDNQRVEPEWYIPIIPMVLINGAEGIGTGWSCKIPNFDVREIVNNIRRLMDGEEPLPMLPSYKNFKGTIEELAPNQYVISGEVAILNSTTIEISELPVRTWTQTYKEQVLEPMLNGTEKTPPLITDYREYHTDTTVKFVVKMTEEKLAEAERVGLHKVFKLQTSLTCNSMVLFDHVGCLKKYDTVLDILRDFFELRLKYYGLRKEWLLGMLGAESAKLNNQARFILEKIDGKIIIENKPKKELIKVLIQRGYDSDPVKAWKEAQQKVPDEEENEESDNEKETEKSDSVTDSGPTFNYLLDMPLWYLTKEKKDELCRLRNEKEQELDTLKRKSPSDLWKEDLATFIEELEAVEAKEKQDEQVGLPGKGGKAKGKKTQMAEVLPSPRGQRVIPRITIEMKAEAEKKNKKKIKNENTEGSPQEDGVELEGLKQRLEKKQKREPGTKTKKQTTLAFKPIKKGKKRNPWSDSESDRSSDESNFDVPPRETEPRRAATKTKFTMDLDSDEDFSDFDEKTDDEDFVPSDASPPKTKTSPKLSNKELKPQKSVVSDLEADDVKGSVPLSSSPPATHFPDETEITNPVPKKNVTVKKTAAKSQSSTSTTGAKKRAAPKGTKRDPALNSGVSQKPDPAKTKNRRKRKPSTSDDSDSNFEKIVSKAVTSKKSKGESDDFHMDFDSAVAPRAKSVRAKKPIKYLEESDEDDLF
Procedure: SP, RO, AZ, CL, and ER (as ethyl succinate) were provided from NODQCAR at a purity > 99.87%. Human mammary tumours, hepatocellular carcinoma (HepG2), and colorectal cancer (HCT-116) cell lines were obtained from VACSERA; Egypt. RPMI 1640 doped with 10% FBS was provided from VACSERA; Egypt. The inhibitory potential against TOP-2 was assessed by the Topo GEN assay kit (TOPOGEN, CO, USA).
Results were reported as IC50 and compared to DOX.

[4] = in vitro; conditions: human, MCF-7 breast cancer cells

Compound | IC50 at 24 h [1] [µM] | IC50 at 24 h [2] [µM] | IC50 [3] [µM] | IC50 at 24 h [4] [µM]
CC[C@H]1OC(=O)[C@H](C)[C@@H](O[C@H]2C[C@@](C)(OC)[C@@H](O)[C@H](C)O2)[C@H](C)[C@@H](O[C@@H]2O[C@H](C)C[C@H](N(C)C)[C@H]2O)[C@](C)(O)C[C@@H](C)CN(C)[C@H](C)[C@@H](O)[C@]1(C)O [AZ, azithromycin] | 32 ± 0.18 | 2.08 ± 0.05 | 36.1 ± 2.11 | 
CC[C@H]1OC(=O)[C@H](C)[C@@H](O[C@H]2C[C@@](C)(OC)[C@@H](O)[C@H](C)O2)[C@H](C)[C@@H](O[C@@H]2O[C@H](C)C[C@H](N(C)C)[C@H]2O)[C@](C)(OC)C[C@@H](C)C(=O)[C@H](C)[C@@H](O)[C@]1(C)O [CL, clarithromycin] | 14.8 ± 0.15 | 2.74 ± 0.42 | 25.6 ± 1.08 | 1.39 ± 0.15
COc1cccc2c1C(=O)c1c(O)c3c(c(O)c1C2=O)C[C@@](O)(C(=O)CO)C[C@@H]3O[C@H]1C[C@H](N)[C@H](O)[C@H](C)O1 [DOX, doxorubicin] | 3.6 ± 0.07 | 1.6 ± 0.05 | 6.37 ± 0.38 | 0.49 ± 0.1
CC[C@H]1OC(=O)[C@H](C)[C@@H](O[C@H]2C[C@@](C)(OC)[C@@H](O)[C@H](C)O2)[C@H](C)[C@@H](O[C@@H]2O[C@H](C)C[C@H](N(C)C)[C@H]2O)[C@](C)(O)C[C@@H](C)C(=O)[C@H](C)[C@@H](O)[C@]1(C)O [ER, erythromycin] |  |  | 11.6 ± 0.7 | 
CC[C@H]1OC(=O)[C@H](C)[C@@H](O[C@H]2C[C@@](C)(OC)[C@@H](O)[C@H](C)O2)[C@H](C)[C@@H](O[C@@H]2O[C@H](C)C[C@H](N(C)C)[C@H]2O)[C@](C)(O)C[C@@H](C)/C(=N\OCOCCOC)[C@H](C)[C@@H](O)[C@]1(C)O [RO, roxithromycin] | 32 ± 0.18 | 0.097 ± 0.024 | 13.1 ± 0.77 | 7.9 ± 0.79
COC1C(O)CC(=O)OC(C)CC=CC=CC(OC2CCC(N(C)C)C(C)O2)C(C)CC(CC=O)C1OC1OC(C)C(OC2CC(C)(O)C(O)C(C)O2)C(N(C)C)C1O (centres unmarked) [SP, spiramycin] | 20.9 ± 1.33 | 12.2 ± 3.27 | 21.2 ± 1.19 | 0.67 ± 0.43
